In US7902191B2, “Histamine H3 receptor antagonists, preparation and therapeutic uses” (Eli Lilly and Company, priority 2004, dated 2011):

Assays:
[1] = biological target: T1, H3R membranes (H3R8-expressing HEK293 cell line) (Homo sapiens, UniProt Q9Y5N1); test: [35S] GTP γ[S] binding assay, antagonist activity in the presence of agonist R(−)alpha methylhistamine; assay type: biochemical; settings: results given below the [35S]GTPγS assay
T1 construct: expressed in transfected cells
Protocol: Membranes isolated as described in (Preparation of Histamine Receptor Subtype Membranes) were used in a [35S]GTPχS functional assay. Binding of [35S]GTPχS to membranes indicates agonist activity. Compounds of the invention of Formula I or II or III were tested for their ability to inhibit binding in the presence of agonists. Alternately, the same transfected cell lines were used for a cAMP assay wherein H3R agonists inhibited forskolin-activated synthesis of cAMP. Compounds of Formula I or II or III were tested for their ability to permit forskolin-stimulated cAMP synthesis in the presence of agonist.
cDNA for the human histamine 3 receptor was cloned and expressed as described in (A. Preparation H1R membranes), above. Transfected cells were selected using G418 ([…]), grown, and tested for histamine binding by the SPA described above. For total binding, cells were assayed in a SPA reaction described above containing 50 mM Tris-HCL (assay buffer), pH 7.6, 1 mg wheat germ agglutinin SPA beads (Amersham Pharmacia Biotech, #RPNQ0001), and 1 nM (3H)-n-alpha-methylhistamine (NEN, NET1027) (total volume per well=200 μl). Thioperimide was added to determine non-specific binding. […]
Antagonist activity of selected compounds was tested for inhibition of [35S] […] Plates were counted in Wallac Trilux 1450 Microbeta scintillation counter for 1 minute. […]

[2] = biological target: T2, H1R (human histamine 1 receptor) (Homo sapiens, UniProt P35367); test: competitive SPA binding assay, H1R, 3H-pyrilamine; settings: selectivity panel
T2 construct: expressed in transfected cells
Protocol: cDNA for the human histamine 1 receptor (H1R) was cloned into a mammalian expression vector containing the CMV promoter (pcDNA3.1(+), Invitogen) and transfected into HEK293 cells using the FuGENE Tranfection Reagent (Roche Diagnostics Corporation). Transfected cells were selected using G418 (500 μ/ml). Colonies that survived selection were grown and tested for histamine binding to cells grown in 96-well dishes using a scintillation proximity assay (SPA) based radioligand binding assay. Briefly, cells, representing individual selected clones, were grown as confluent monolayers in 96-well dishes (Costar Clear Bottom Plates, #3632) by seeding wells with 25,000 cells and growing for 48 hours (37° C., 5% CO2). Growth media was removed and wells were rinsed two times with PBS (minus Ca^2+ or Mg^2+). For total binding, cells were assayed in a SPA reaction containing 50 mM Tris-HCL (assay buffer), pH 7.6, 1 mg wheat germ agglutinin SPA beads (Amersham Pharmacia Biotech, #RPNQ0001), and 0.8 nM ^3H-pyrilamine (Net-594, NEN) (total volume per well ˜200 μl). Astemizole (10 μM, Sigma #A6424) was added to appropriate wells to determine non-specific binding. Plates were covered with FasCal and incubated at room temperature for 120 minutes. […] Plates were counted in a Wallac Trilux 1450 Microbeta scintillation counter. […]

[3] = biological target: T3, H4R (human GPRv53 receptor) (Homo sapiens, UniProt Q9H3N8); test: competitive binding assay, GPRv53 (H4R), (3H) Histamine
T3 construct: expressed in transfected cells; host or cells: HEK293 GPRv53 50 cells (whole-cell homogenate/lysate)
Protocol: cDNA for the human GPRv53 receptor was cloned and expressed as described in (A. Preparation H1R membranes), above. Transfected cells were selected, tested for histamine binding, and selected. HEK293 GPRv53 50 cells were grown to confluency in DMEM/F12 (Gibco) supplemented with 5% FBS and 500 ug/ml G418 and washed with Delbecco's PBS (Gibco) and harvested by scraping. Whole cells were homogenized with a Polytron tissuemizer in binding buffer, 50 mM Tris pH 7.5. Cell lysates, 50 ug, were incubated in 96 well dishes with 3 nM (3H) Histamine and compounds in binding buffer for 2 hours at room temperature. Lysates were filtered through glass fiber filters (Perkin Elmer) with a Tomtec cell harvester. Filters were counted with melt-on scintillator sheets (Perkin Elmer) in a Wallac Trilux 1450 Microbeta Scintillation counter for 5 minutes.
(§1) To investigate the selectivity of the antagonists for the histamine receptors, a competitive binding assay described above was performed. […] Until the present invention, most known H3R antagonists also bound H4R.

[4] = biological target: T4, H2 (human histamine 2 receptor) (Homo sapiens, UniProt P25021); test: competitive SPA binding assay, H2R, 3H-tiotidine; settings: selectivity panel
T4 construct: expressed in transfected cells
Protocol: cDNA for the human histamine 2 receptor was cloned, expressed and transfected into HEK 293 cells as described above. Histamine binding to cells was assayed by SPA described above. For total binding, cells were assayed in a SPA reaction containing 50 mM Tris-HCl (assay buffer), pH 7.6, 1 mg wheat germ agglutinin SPA beads (Amersham Pharmacia Biotech, #RPNQ0001), and 6.2 nM ^3H-tiotidine (Net-688, NEN) (total volume per well=200 μl). Cimetidine (10 μM, Sigma #C4522) was added to appropriate wells to determine non-specific binding.
Several clones were selected as positive for binding, and a single clone (H2R10) was used to prepare membranes for binding studies. Five micrograms of protein was used per well in the SPA receptor-binding assay.
as §1

[5] = biological target: T5, H3R (human histamine 3 receptor) (Homo sapiens, UniProt Q9Y5N1); test: competitive inhibition SPA binding assay, H3R, (3H)-n-alpha-methylhistamine; settings: selectivity panel
T5 construct: expressed in transfected cells
Text: The inventive compounds can readily be evaluated by using a competitive inhibition Scintillation Proximity Assay (SPA) based on a H3R binding assay using [3H] α methylhistamine as ligand. Stable cell lines, including but not limited to HEK can be transfected with cDNA coding for H3R to prepare membranes used for the binding assay. The technique is illustrated below (Preparation of Histamine Receptor Subtype Membranes) for the histamine receptor subtypes.
cDNA for the human histamine 3 receptor was cloned and expressed as described in (A. Preparation H1R membranes), above. Transfected cells were selected using G418 ([…]), grown, and tested for histamine binding by the SPA described above. For total binding, cells were assayed in a SPA reaction described above containing 50 mM Tris-HCL (assay buffer), pH 7.6, 1 mg wheat germ agglutinin SPA beads (Amersham Pharmacia Biotech, #RPNQ0001), and 1 nM (3H)-n-alpha-methylhistamine (NEN, NET1027) (total volume per well=200 μl). Thioperimide was added to determine non-specific binding. Several clones were selected as positive for binding, and a single clone (H3R8) was used to prepare membranes for binding studies described above. Five micrograms of protein was used per well in the SPA receptor-binding assay.
To investigate the selectivity of the antagonists for the histamine receptors, a competitive binding assay described above was performed. […]

T1 sequence (Q9Y5N1 whole entry): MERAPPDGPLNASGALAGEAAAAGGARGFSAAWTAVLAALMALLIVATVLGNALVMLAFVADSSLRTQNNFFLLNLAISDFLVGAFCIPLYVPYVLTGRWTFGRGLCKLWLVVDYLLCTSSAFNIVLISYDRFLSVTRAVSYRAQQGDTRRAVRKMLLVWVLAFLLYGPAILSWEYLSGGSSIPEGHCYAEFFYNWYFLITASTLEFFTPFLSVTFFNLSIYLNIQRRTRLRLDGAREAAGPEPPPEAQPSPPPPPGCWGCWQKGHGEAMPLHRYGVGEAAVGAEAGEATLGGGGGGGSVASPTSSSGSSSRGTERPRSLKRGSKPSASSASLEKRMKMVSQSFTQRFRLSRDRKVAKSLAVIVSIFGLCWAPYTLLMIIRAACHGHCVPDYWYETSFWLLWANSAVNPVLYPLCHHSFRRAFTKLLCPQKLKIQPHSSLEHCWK
T3 sequence (Q9H3N8 whole entry): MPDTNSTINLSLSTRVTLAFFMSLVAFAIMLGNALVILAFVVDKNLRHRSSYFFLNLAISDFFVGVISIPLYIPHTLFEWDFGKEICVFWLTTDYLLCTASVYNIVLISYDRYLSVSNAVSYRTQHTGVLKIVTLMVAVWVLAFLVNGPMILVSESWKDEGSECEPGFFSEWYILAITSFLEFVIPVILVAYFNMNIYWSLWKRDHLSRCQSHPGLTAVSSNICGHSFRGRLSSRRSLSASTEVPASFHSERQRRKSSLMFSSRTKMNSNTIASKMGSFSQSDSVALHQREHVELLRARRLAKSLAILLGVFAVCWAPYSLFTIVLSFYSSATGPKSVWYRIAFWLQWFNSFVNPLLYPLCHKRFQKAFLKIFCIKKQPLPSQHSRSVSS
T2 sequence (P35367 whole entry): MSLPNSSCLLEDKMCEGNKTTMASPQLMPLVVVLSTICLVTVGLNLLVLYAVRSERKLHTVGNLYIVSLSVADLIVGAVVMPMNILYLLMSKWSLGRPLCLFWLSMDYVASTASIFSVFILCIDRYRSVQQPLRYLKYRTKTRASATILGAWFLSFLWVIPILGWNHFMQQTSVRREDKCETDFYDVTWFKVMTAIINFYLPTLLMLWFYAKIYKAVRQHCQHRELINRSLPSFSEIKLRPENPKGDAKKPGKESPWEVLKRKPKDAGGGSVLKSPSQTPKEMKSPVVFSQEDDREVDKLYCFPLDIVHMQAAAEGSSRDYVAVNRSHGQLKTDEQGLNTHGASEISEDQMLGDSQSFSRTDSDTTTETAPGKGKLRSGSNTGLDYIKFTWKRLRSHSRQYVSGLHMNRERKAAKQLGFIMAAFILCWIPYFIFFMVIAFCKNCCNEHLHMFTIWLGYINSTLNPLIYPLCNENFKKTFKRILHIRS
T5 sequence (Q9Y5N1 whole entry): as the sequence (Q9Y5N1 whole entry) above
T4 sequence (P25021 whole entry): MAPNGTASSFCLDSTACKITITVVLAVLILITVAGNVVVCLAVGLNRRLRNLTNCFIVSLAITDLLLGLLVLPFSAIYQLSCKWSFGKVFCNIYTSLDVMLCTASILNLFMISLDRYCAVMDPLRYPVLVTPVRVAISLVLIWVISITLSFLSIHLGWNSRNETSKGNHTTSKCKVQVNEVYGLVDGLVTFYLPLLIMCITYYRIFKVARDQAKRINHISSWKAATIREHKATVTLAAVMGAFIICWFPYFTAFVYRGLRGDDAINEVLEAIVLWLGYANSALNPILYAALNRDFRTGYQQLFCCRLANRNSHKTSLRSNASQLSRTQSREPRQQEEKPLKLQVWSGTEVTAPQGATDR

Structure (SMILES)	Ki [1]	Ki [2]	Ki ([3]; selectivity panel)	inhibition of binding to H4R compared to H3R ([3]; statement in words)	Ki [4]	Ki [5]
O=C(c1ccc2c(c1)CCC(N1CCCC1)C2)N1CCC[C@H]1CN1CCCC1 (mixture of isomers) [Example 3, (2-Pyrrolidin-1-ylmethyl-pyrrolidin-1-yl)-(6-pyrrolidin-1-yl-5,6,7,8-tetrahydro-naphthalen-2-yl)-methanone]	1.5 nM	–	–	–	–	–
O=C(c1ccc2c(c1)CCC(N1CCOCC1)C2)N1CCC[C@H]1CN1CCCC1 (mixture of isomers) [Example 6, (6-Morpholin-4-yl-5,6,7,8-tetrahydro-naphthalen-2-yl)-(2-pyrrolidin-1-ylmethyl-pyrrolidin-1-yl)-methanone]	7.8 nM	–	–	–	–	–
O=C(c1ccc2c(c1)CCCC2)N1CCC[C@H]1CN1CCCC1 [Example 15, (S)-(2-Pyrrolidin-1-ylmethyl-pyrrolidin-1-yl)-(5,6,7,8-tetrahydro-naphthalen-2-yl)-methanone]	–	≥ 20000 nM	≥ 20000 nM	did not inhibit binding H4R	≥ 17800 nM	1.8 nM
